Data: patent publication US20120034613A1, “Apparatus and Method for Testing Relationships Between Gene Expression and Physical Appearance of Skin” (NSE Products, Inc., priority 2010, published 2012)

Tested on: EpidermFT™ Skin Model (EFT-400) full thickness skin cultures
Assay: Affymetrix GeneChip HG U133 Plus 2.0 microarray global gene expression, agent-exposed vs untreated skin cultures
Assay type: cell-based, human
[1] = probe 239272_at, Table 3 skin structure
[2] = probe 1552319_a_at, 0.5%, 24 hr
[3] = probe 1552578_a_at, 0.5%, 24 hr
[4] = probe 1554252_a_at, 0.5%, 24 hr
[5] = probe 1554741_s_at, 0.5%, 24 hr
[6] = probe 1554921_a_at, 0.5%, 24 hr
[7] = probe 1554980_a_at, 0.5%, 24 hr
[8] = probe 1554997_a_at, 0.5%, 24 hr
[9] = probe 1555103_s_at, 0.5%, 24 hr
[10] = probe 1555416_a_at, 0.5%, 24 hr
[11] = probe 1556410_a_at, 0.5%, 24 hr
[12] = probe 1558143_a_at, 0.5%, 24 hr
[13] = tissue exposed to salicin, skin structure gene, Table 4
[14] = tissue exposed to salicin, skin structure gene, Table 4, direction down
[15] = tissue exposed to salicin, skin structure gene, Table 4, direction up

OCc1ccccc1O[C@@H]1O[C@H](CO)[C@@H](O)[C@H](O)[C@H]1O [Salicin, 2-(Hydroxymethyl)phenyl β-D-glucospyranoside]
Direction NFKBIZ (probe 223217_s_at, 0.5%, 24 hr): up
Fold change NFKBIZ (probe 223217_s_at, 0.5%, 24 hr): 2.35
Direction SLC25A19 (probe 223222_at, 0.5%, 24 hr): up
Fold change SLC25A19 (probe 223222_at, 0.5%, 24 hr): 2.243
Direction HAS3 (probe 223541_at, 0.5%, 24 hr): down
Fold change HAS3 (probe 223541_at, 0.5%, 24 hr): 3.713
Direction TRPC4 (probe 224220_x_at, 0.5%, 24 hr): up
Fold change TRPC4 (probe 224220_x_at, 0.5%, 24 hr): 2.708
Direction CNFN (probe 224329_s_at, 0.5%, 24 hr): down
Fold change CNFN (probe 224329_s_at, 0.5%, 24 hr): 5.442
Direction H2AFJ (probe 225245_x_at, 0.5%, 24 hr): down
Fold change H2AFJ (probe 225245_x_at, 0.5%, 24 hr): 2.328
Direction ABHD2 (probe 225337_at, 0.5%, 24 hr): up
Fold change ABHD2 (probe 225337_at, 0.5%, 24 hr): 2.704
Direction NRP2 (probe 225566_at, 0.5%, 24 hr): up
Fold change NRP2 (probe 225566_at, 0.5%, 24 hr): 3.198
Direction FGF11 (probe 227271_at, 0.5%, 24 hr): down
Fold change FGF11 (probe 227271_at, 0.5%, 24 hr): 2.672
Direction HS3ST3B1 (probe 227361_at, 0.5%, 24 hr): up
Fold change HS3ST3B1 (probe 227361_at, 0.5%, 24 hr): 3.41
Direction SERPINE2 (probe 227487_s_at, 0.5%, 24 hr): up
Fold change SERPINE2 (probe 227487_s_at, 0.5%, 24 hr): 3.148
Direction ASAM (probe 228082_at, 0.5%, 24 hr): up
Fold change ASAM (probe 228082_at, 0.5%, 24 hr): 2.108
Direction IL20RB (probe 228575_at, 0.5%, 24 hr): down
Fold change IL20RB (probe 228575_at, 0.5%, 24 hr): 10.04
Direction SCN9A (probe 229199_at, 0.5%, 24 hr): up
Fold change SCN9A (probe 229199_at, 0.5%, 24 hr): 3.818
Direction CREB5 (probe 229228_at, 0.5%, 24 hr): up
Fold change CREB5 (probe 229228_at, 0.5%, 24 hr): 9.768
Direction TNS4 (probe 230398_at, 0.5%, 24 hr): down
Fold change TNS4 (probe 230398_at, 0.5%, 24 hr): 2.738
Direction SLC20A1 (probe 230494_at, 0.5%, 24 hr): up
Fold change SLC20A1 (probe 230494_at, 0.5%, 24 hr): 2.526
Direction KLF15 (probe 231015_at, 0.5%, 24 hr): up
Fold change KLF15 (probe 231015_at, 0.5%, 24 hr): 2.338
Direction KGFLP2 (probe 231031_at, 0.5%, 24 hr): up
Fold change KGFLP2 (probe 231031_at, 0.5%, 24 hr): 3.34
Direction EPPK1 (probe 232165_at, 0.5%, 24 hr): down
Fold change EPPK1 (probe 232165_at, 0.5%, 24 hr): 12.4
Direction ELOVL3 (probe 234513_at, 0.5%, 24 hr): down
Fold change ELOVL3 (probe 234513_at, 0.5%, 24 hr): 2.048
Direction KRTCAP3 (probe 235148_at, 0.5%, 24 hr): down
Fold change KRTCAP3 (probe 235148_at, 0.5%, 24 hr): 2.158
Direction GSTA4 (probe 235405_at, 0.5%, 24 hr): down
Fold change GSTA4 (probe 235405_at, 0.5%, 24 hr): 3.3
Direction SGPP2 (probe 238567_at, 0.5%, 24 hr): down
Fold change SGPP2 (probe 238567_at, 0.5%, 24 hr): 5.641
Direction MMP28 [1]: down
Fold change MMP28 [1]: 4.074
Direction MMP28 (probe 239273_s_at, 0.5%, 24 hr): down
Fold change MMP28 (probe 239273_s_at, 0.5%, 24 hr): 2.678
Direction DSEL (probe 244852_at, 0.5%, 24 hr): up
Fold change DSEL (probe 244852_at, 0.5%, 24 hr): 2.251
Direction KLK8 [2]: down
Fold change KLK8 [2]: 4.867
Direction MYO3B [3]: up
Fold change MYO3B [3]: 2.338
Direction SNX21 (probe 1553960_at, 0.5%, 24 hr): down
Fold change SNX21 (probe 1553960_at, 0.5%, 24 hr): 2.031
Direction LASS3 [4]: down
Fold change LASS3 [4]: 15.34
Direction FGF7 /// KGFLP1 /// KGFLP2 [5]: up
Fold change FGF7 /// KGFLP1 /// KGFLP2 [5]: 2.506
Direction SCEL [6]: down
Fold change SCEL [6]: 6.1
Direction ATF3 [7]: up
Fold change ATF3 [7]: 2.623
Direction PTGS2 [8]: up
Fold change PTGS2 [8]: 6.813
Direction FGF7 [9]: up
Fold change FGF7 [9]: 2.35
Direction ALOX15B [10]: down
Fold change ALOX15B [10]: 2.215
Direction KRTAP19-1 [11]: up
Fold change KRTAP19-1 [11]: 24.65
Direction BCL2L11 [12]: up
Fold change BCL2L11 [12]: 2.347
Direction LCE1E (probe 1559224_at, 0.5%, 24 hr): down
Fold change LCE1E (probe 1559224_at, 0.5%, 24 hr): 4.811
Direction LCE1B (probe 1560531_at, 0.5%, 24 hr): down
Fold change LCE1B (probe 1560531_at, 0.5%, 24 hr): 71.235
Direction ITGB1 (probe 1561042_at, 0.5%, 24 hr): up
Fold change ITGB1 (probe 1561042_at, 0.5%, 24 hr): 2.151
Direction FLG2 (probe 1569410_at, 0.5%, 24 hr): down
Fold change FLG2 (probe 1569410_at, 0.5%, 24 hr): 45.91
Direction COL4A1 (211981_at) [13]: up
Direction FBN2 (203184_at) [13]: up
Direction FN1 (214702_at) [13]: up
Direction FNDC3A (215910_s_at) [13]: up
Direction FOXO1 (202724_s_at) [13]: up
Direction IGFBP5 (211958_at) [13]: up
Direction ITGB1 (1561042_at) [13]: up
Direction KRT5 (201820_at) [13]: down
Direction KRT9 (208188_at) [13]: down
Direction MMP28 (239272_at) [13]: down
Direction SOD2 (215078_at) [13]: up
Direction TIMP3 (201150_s_at) [13]: up
Direction TNC (216005_at) [13]: up
Direction TNFAIP3 (202643_s_at) [13]: up
Fold change KRT5 (201820_at) [14]: 3.737
Fold change KRT9 (208188_at) [14]: 3.737
Fold change MMP28 (239272_at) [14]: 4.074
Fold change COL4A1 (211981_at) [15]: 2.121
Fold change FBN2 (203184_at) [15]: 2.028
Fold change FN1 (214702_at) [15]: 2.71
Fold change FNDC3A (215910_s_at) [15]: 3.663
Fold change FOXO1 (202724_s_at) [15]: 2.098
Fold change IGFBP5 (211958_at) [15]: 2.712
Fold change ITGB1 (1561042_at) [15]: 2.151
Fold change SOD2 (215078_at) [15]: 5.712
Fold change TIMP3 (201150_s_at) [15]: 2.058
Fold change TNC (216005_at) [15]: 2.719
Fold change TNFAIP3 (202643_s_at) [15]: 6.915
